Some results are limits rather than exact numbers.

Usually melting point stands for the temperature, or range, at which the solid turns liquid. On to `C=C1C(=O)OC2CC3(C)CCCC(C)C3=CC12` (configuration not stated), for which the melting point amounted to 76 °C. In turn, `O=C(Cl)c1nnc(-c2ccccc2)o1` displayed a melting point of 80 to 90 °C. `O=Cc1ccc(-c2ccccc2Cl)o1` came in with a melting point of 75 to 78 °C. On to `ON=Cc1ccc(Br)cc1`, for which the melting point was 118 °C.

`O=c1c2ccccc2cc2c3ccccc3ccn12`: the melting point worked out at 147 °C. As for `O=C(O)C1CCCC1`, the figure is 4 °C; as for `OCc1ccc(-c2ccccn2)s1`, 86 to 88 °C; as for `Clc1ccc(OCCBr)cc1`, 38 to 39 °C. On to `O=c1c(O)c(-c2ccc(O)c(O)c2)oc2cc(O)ccc12`, for which the melting point was 330 °C.

Turning to `CCOC(CCl)OCC`, the melting point is -45 °C.

Regarding `CCCCN(CC)c1c([N+](=O)[O-])cc(C(F)(F)F)cc1[N+](=O)[O-]`, the melting point was found to be 66 °C. As for `Cc1cc2ccccc2nc1C`, the figure is 68.5 °C. The same measure for `CC(=O)OC1CCCCC1`: -65 °C; for `COC(=O)CCCCCCCCC(=O)OC`: 38 °C. On to `CSC(=NC#N)Nc1ccccc1`, for which the melting point lay in the range of 185 to 186 °C. As for `O=C1C(=C2C=Cc3ccc(O)cc3N2)C(=O)c2ccccc21`, the figure is 266 to 267 °C; as for `O=C(O)CC(F)(F)F`, 9.7 °C; as for `Cc1c(Cl)ccc(OC(C)C(=O)Nc2ccccc2)c1Cl` (configuration not stated), 146 °C. As for `COc1ccccc1C(C)O` (racemic), the figure is 37 to 39 °C; as for `O=C(O)c1ccc2nccn2c1`, 250 °C.

Take `CC(=O)c1nn(-c2ccccc2)c2cc3c(cc12)c(C(C)=O)nn3-c1ccccc1`: the melting point is 310 to 312 °C. As for `N#Cc1ccnc(Cl)c1`, the figure is 71 to 72 °C; as for `COc1cccc(C(=O)O)c1OC`, 123 °C. As for `CC(C)(CCCC(C)(C)C(=O)O)C(=O)O`, the melting point lay in the range of 169 to 171 °C. `CC12CCC(C(C(=O)Oc3ccccc3)C1)C2(C)C` (configuration not stated) came in with a melting point of 41 °C. `CCCCCCCCCCCCC(CCCCCCCCCCC)CCCCCCCCCCCC` came in with a melting point of 9.7 °C. Molecule `Sc1ccncc1` gave a melting point of 182 to 189 °C. As for `Cc1ccccc1NC=O`, the figure is 62 °C; as for `CC12CCC(=O)CC1CCC1C2CCC2(C)C1CCC21OCCO1` (configuration not stated), 192 to 196 °C; as for `CCOC(=O)c1c(NC(=S)Nc2ccc(Cl)cc2)sc2c1CCN(Cc1ccccc1)C2`, 169 to 172 °C. `Cc1cccc(/N=N/c2c(C)[nH]c(=S)c(C#N)c2C)c1C` yielded a melting point of 259 °C.

The molecule `O=C1OC(O)c2c(Cl)c(Cl)c(Cl)c(Cl)c21` (configuration not stated) gave a melting point of 240 to 248 °C. As for `O=CC12CC=CCC1C1CC=CCC1O2` (configuration not stated), the melting point is -80 °C.

In turn, `Sc1nc(-c2ccccc2)c(-c2ccccc2)o1` gave a melting point of 253 °C.

`CSc1ccc2c(c1)N(CCC1CCCCN1C)c1ccccc1S2` (configuration not stated) came in with a melting point of 73 °C. Regarding `COc1cc(CC#N)cc(OC)c1OC`, the melting point turned out to be 77 °C. Consider `NC(=NO)C(N)=NO`, for which the melting point lay within 200 to 204 °C. On to `CC1=C(C)S(=O)(=O)CCS1(=O)=O`, for which the melting point stood at 168 °C. As for `O=C(C=Cc1ccc(Cl)c(Cl)c1)C=Cc1ccc(Cl)c(Cl)c1`, the figure is 175 to 177 °C.

On to `CC(C)[Si](C(C)C)(C(C)C)n1ccc2c(Br)cccc21`, for which the melting point lay in the range of 62 to 65 °C. As for `NC(=S)Nc1cccc(Cl)c1`, the figure is 137 to 138 °C. As for `C=C(C)C(=O)OCCC(F)(F)C(F)(F)C(F)(F)C(F)(F)C(F)(F)C(F)(F)C(F)(F)C(F)(F)C(F)(F)C(F)(F)F`, the figure is 45 to 50 °C; as for `Cn1c(=O)c(C2=NNC(=O)C2=C2C(=O)Nc3ccccc32)c(O)c2ccccc21`, 279 °C. As for `Cc1ccc(C(=O)NC(=Cc2ccccc2)C(=O)O)cc1`, the figure is 229 to 230 °C.

Molecule `O=C1CCCN1c1ccccc1` yielded a melting point of 66 °C. Turning to `CSc1nc(=O)n2ccc(C)cc2n1`, the melting point was 170 to 173 °C. `CC(C)(C)c1ccc(OCC#N)cc1` registered a melting point of 69 °C. The molecule `COC(=O)[C@@H](N)Cc1ccc(O)cc1` came in with a melting point of 137 °C. As for `CC(C)=NNc1ccccc1`, the figure is 42 °C. The same measure for `NCC1CCCC(CN)C1` (configuration not stated): -70 °C; for `OCc1csc(-c2cccs2)n1`: 87 to 90 °C; for `CCC#CC(=O)O`: 50 °C. `COc1ccc2nsnc2c1`: the melting point was 82 to 83 °C. In turn, `CCOc1nc2ccccc2c(=O)n1N` returned a melting point of 97 to 98 °C. In turn, `COC(=O)c1cc(OC)c(OC)cc1N` registered a melting point of 129 °C. The same measure for `NC(CCS)C(=O)O` (configuration not stated): 232 °C; for `CC(C)OC(=O)C1(S(=O)(=O)c2ccc(Cl)cc2)CC1`: 89.8 °C.

Molecule `COc1cc2c(cc1O)C(Cc1ccc(OC)c(OC)c1)N(C)CC2` (configuration not stated) registered a melting point of 127 °C. The same measure for `O=S(=O)(c1ccc(Cl)cc1)C(F)(F)C(F)Cl` (configuration not stated): 55 to 57 °C; for `Cc1ccc(C(=O)NN)cc1`: 117 °C. The same measure for `Cc1ccc(S(=O)(=O)NC(=O)NC2C3CCC(C)(C2O)C3(C)C)cc1` (configuration not stated): 192 °C. On to `Cc1nc(-c2ccc(S(=O)(=O)N(C)C)cc2)c(-c2ccc(S(=O)(=O)N(C)C)cc2)o1`, for which the melting point lay within 208 to 211 °C. As for `CCC/C=C/CCCCCC`, the figure is -63.7 °C.

Regarding `Cc1cc(C)c(Cc2cnc(NC3=NCCN3)s2)c(C)c1`, the melting point was 192 to 194 °C. Molecule `O=C(O)c1ccc(-c2csnn2)cc1` displayed a melting point of 230 °C. `CN(C)CCC=C1c2ccccc2Sc2ccc(Cl)cc21` came in with a melting point of 97.5 °C. The same measure for `NS(=O)(=O)c1cccc(Cl)c1`: 146 °C. The same measure for `O=[N+]([O-])/C(=C/c1ccccc1[N+](=O)[O-])c1ccccc1`: 107 °C; for `COC(=O)c1ccc2c(I)c[nH]c2c1`: 150 °C. `NNC(=O)c1ccc(F)cc1F` had a melting point of 141 to 142 °C. Regarding `CC(=NCc1ccccc1)c1c(O)c2ccccc2n(-c2ccccc2)c1=O`, the melting point was determined as 164 °C. The same measure for `ON=Cc1c(Cl)cccc1Cl`: 149 °C; for `Oc1ccc(Cl)c2cccnc12`: 130 °C.

`O=C(Nc1ccccc1)OC1C=CC=CC(OC(=O)Nc2ccccc2)C1` (configuration not stated) came in with a melting point of 181 °C. For `CCOc1ccc2nc3cc(N)ccc3c(N)c2c1`, the melting point was 226 °C. The same measure for `CC(=O)Nc1cccc(N=Nc2cccc(NC(C)=O)c2)c1`: 272 °C; for `COC(=O)c1sc2ccccc2c1Cl`: 81 °C. As for `O=S(=O)(O)C(F)(F)F`, the figure is less than 25 °C; as for `O=C(O)CCSCSCCC(=O)O`, 138 to 140 °C; as for `CC1=C(c2ccccc2)c2ccccc2/C1=N/NC(N)=O`, 200 to 201 °C. The same measure for `CN1CCCN(CC#N)CCN(CC#N)CCCN(CC#N)CC1`: 88 °C. Molecule `CC(=O)OCC(=O)C12OC(C)(C)OC1CC1C3CC(C=O)=C4C=C(OCCCl)CCC4(C)C3(F)C(O)CC12C` (configuration not stated) came in with a melting point of 181 °C. The same measure for `COc1cc2c(cc1OC)C(CC#N)NCC2` (configuration not stated): 110 to 114 °C; for `N#Cc1cc(Cl)ccc1[N+](=O)[O-]`: 89 to 94 °C. For `CSc1nc(C=O)ccc1C#N`, the melting point amounted to 140 °C. For `Cc1noc(-c2ccc(CBr)cc2)n1`, the melting point was 114 to 116 °C. The same measure for `Cc1cc2c(C#N)c3n(C)c4ccccc4n3c(=O)c2c(C)n1`: 321 °C; for `ON=Cc1c[nH]cn1`: 182 °C. `Cc1nc(O)nc(O)c1C` came in with a melting point of 297 to 300 °C.

Regarding `Cc1ccc(S(=O)(=O)N[C@@H](c2ccccc2)[C@@H](N)c2ccccc2)cc1`, the melting point was 127 to 130 °C.

For the molecule `N#Cc1ccc(F)cc1[N+](=O)[O-]`, the melting point was in the range of 71 to 73 °C. As for `Nc1cccc(S(=O)(=O)N2CCOCC2)c1`, the figure is 132 to 135 °C.

The molecule `CC12CCC(/C(=N/O)C/C1=N\O)C2(C)C` (configuration not stated) showed a melting point of 209 °C. For the molecule `CCOP(=S)(OCC)Oc1ccc([N+](=O)[O-])cc1`, the melting point came out at 6.1 °C. As for `Cc1ccc(-c2csc(N)n2)cc1`, the melting point was 137 °C.

With `O=C1COc2ccccc21`, the melting point was determined as 102 °C. The same measure for `ClCC1CN(Cc2ccccc2)CCO1` (configuration not stated): 46 to 50 °C. In turn, `BrCc1sc(-c2ccccc2)nc1-c1ccccc1` displayed a melting point of 112 to 114 °C. As for `Cc1ccc(C(C)C)c(C)c1`, the figure is -82 °C.

For `CC(CC(C)C(=O)O)C(=O)O` (configuration not stated), the melting point lay within 104 to 108 °C.

Turning to `N#CC(=Cc1cccnc1)C1N=c2ccccc2=N1`, the melting point stood at 229 °C.

In turn, `OCC(CO)(CO)CBr` returned a melting point of 76 °C. The same measure for `COC(=O)C1=C(C)NC(=S)NC1c1cccc([N+](=O)[O-])c1` (configuration not stated): 247 °C. Consider `CCCCCCC(O)C1C2=C(CC(C(O)C3CC=CC(=O)O3)CC3=C(C(=O)OC3=O)C1O)C(=O)OC2=O` (configuration not stated), for which the melting point worked out at 170 °C. The molecule `Cc1cc2cc([N+](=O)[O-])ccc2[nH]1` registered a melting point of 173 to 178 °C. As for `CC1=C[C@H](O)[C@H]2C[C@@H]1C2(C)C`, the figure is 70.8 °C; as for `COc1ccc(-c2cc3c(C#N)c(N)[nH]n3c(=O)c2C#N)cc1`, 297 °C. As for `Cn1ccsc1=NC(=O)c1ccccc1`, the figure is 114 °C; as for `CC(C)(c1cc(Br)c(O)c(Br)c1)c1cc(Br)c(O)c(Br)c1`, 181 °C. As for `CCOC(=O)C(=NNc1ccccc1[N+](=O)[O-])C(C)=O`, the figure is 73 to 74 °C. `NC(=O)C=Cc1ccccc1`: the melting point was determined as 149 °C. As for `CC(C)Cc1ccc(C(C)C(=O)O)cc1` (configuration not stated), the melting point was determined as 75 °C.

Source of the values: a melting point compilation (Tetko et al.).
